Assay results as given in patent US20230137306A1 (priority 2020, published 2023).
Where a name gives a salt, the structure may show the parent alone. Read-outs that look alike come from different tables or passages of the source.

What was measured:
[1] = test system: membrane fusion induced by the S protein of SARS-CoV; format: cell-based, human; settings: 293FT target cells, nafamostat 0.1 μM to 10 μM, gabexsate 1 μM to 10 μM, FIG. 6
[2] = test system: membrane fusion induced by the S protein of SARS-CoV-2; format: cell-based, human
[3] = test system: membrane fusion induced by the S protein of SARS-CoV-2 (Calu-3 cells); format: cell-based, human
[4] = healthy adult males, cited from earlier work
[5] = test system: membrane fusion induced by the S protein of SARS-CoV-2 (H3255 cells); format: cell-based, human
[6] = test system: membrane fusion caused by the S protein of MERS-CoV; settings: cited from earlier work
[7] = test system: SARS-CoV-2; settings: read-out: 50% infection inhibitory concentration (IC50); Vero E6 cells, TMPRSS2 not expressed; Wang et al.; cited from earlier work
[8] = Pharmacokinetics, intravenous drip in healthy adult males; settings: 20 mg intravenous drip over 90 minutes; corresponds to 61.5 ng/mL
[9] = test system: COVID-19; settings: randomized controlled trials; cited from earlier work
[10] = test system: SARS-CoV; settings: cited from earlier work
[11] = test system: RNA viruses such as norovirus, bunyavirus, arenavirus, flavivirus and Filovirus; settings: cited from earlier work
[12] = test system: SARS-CoV-2; settings: human, in vivo; cited from earlier work

Compound: CN(C)C(=O)COC(=O)Cc1ccc(OC(=O)c2ccc(NC(=N)N)cc2)cc1 [camostat mesylate, dimethylcarbamoylmethyl 4-(4-guanidinobenzoyloxy)phenylacetate monomethanesulfonate]
- inhibitory effect on membrane fusion (relative cell fusion, RL activity) [1]: second highest inhibitory effect
- inhibitory effect on membrane fusion (relative cell fusion, RL activity) [2]: membrane fusion was inhibited
- inhibitory effect relative to that of nafamostat mesylate [2]: about 1/10

Compound: N=C(N)c1ccc2cc(OC(=O)c3ccc(N=C(N)N)cc3)ccc2c1 [nafamostat mesylate, 6-amidinonaphthalen-2-yl 4-guanidinobenzoate bis(methanesulfonate)]
- concentration lower than that used for the 293FT cells [3]: about 10 fold
- inhibitory activity against membrane fusion, stronger than that of camostat mesylate [3]: about 10 fold
- suppression of membrane fusion [3]: almost completely suppressed
- maximum blood concentration of unchanged agent ([4]; 10 mg intravenous drip over 90 minutes): 16.4 ng/mL
- maximum blood concentration of unchanged agent ([4]; 20 mg intravenous drip over 90 minutes): 61.5 ng/mL
- suppression of membrane fusion [5]: almost completely suppressed
- inhibition of membrane fusion caused by the S protein of MERS-CoV [6]: effectively inhibits
- IC50 [7]: 22.5 µM
- maximum blood concentration converted to [8]: 114 nM

Compound: Cc1cccc(C)c1OCC(=O)N[C@@H](Cc1ccccc1)[C@@H](O)C[C@H](Cc1ccccc1)NC(=O)[C@H](C(C)C)N1CCCNC1=O [lopinavir]
- improvement of the symptoms of COVID-19 [9]: could not improve the symptoms
- inhibitory activity against SARS-CoV [10]: exhibited inhibitory activity

Compound: NC(=O)c1nc(F)c[nH]c1=O [favipiravir]
- antiviral activity against RNA viruses [11]: exhibits antiviral activity

Compound: CC(C)c1nc(CN(C)C(=O)N[C@H](C(=O)N[C@@H](Cc2ccccc2)C[C@H](O)[C@H](Cc2ccccc2)NC(=O)OCc2cncs2)C(C)C)cs1 [ritonavir]
- improvement of the symptoms of COVID-19 [9]: could not improve the symptoms
- inhibitory activity against SARS-CoV [10]: exhibited inhibitory activity

Compound: CCN(CCO)CCCC(C)Nc1ccnc2cc(Cl)ccc12 (stereo not drawn) [Hydroxychloroquine]
- removal of SARS-CoV-2 from the nasopharynx [12]: removed at high frequency
